Ends that are not written are not given here.
Experiments:
[1] = target: T1, rat ASIC3 (rASIC3) (Rattus norvegicus, UniProt O35240); assay: whole-cell patch clamp, HEK293, potentiation of pH5.5-evoked sustained current; format: cell-based; conditions: peptide applied in pH 7.4 resting solution, pH 5.5 pulse; positive modulator
T1 sequence (O35240 1-533): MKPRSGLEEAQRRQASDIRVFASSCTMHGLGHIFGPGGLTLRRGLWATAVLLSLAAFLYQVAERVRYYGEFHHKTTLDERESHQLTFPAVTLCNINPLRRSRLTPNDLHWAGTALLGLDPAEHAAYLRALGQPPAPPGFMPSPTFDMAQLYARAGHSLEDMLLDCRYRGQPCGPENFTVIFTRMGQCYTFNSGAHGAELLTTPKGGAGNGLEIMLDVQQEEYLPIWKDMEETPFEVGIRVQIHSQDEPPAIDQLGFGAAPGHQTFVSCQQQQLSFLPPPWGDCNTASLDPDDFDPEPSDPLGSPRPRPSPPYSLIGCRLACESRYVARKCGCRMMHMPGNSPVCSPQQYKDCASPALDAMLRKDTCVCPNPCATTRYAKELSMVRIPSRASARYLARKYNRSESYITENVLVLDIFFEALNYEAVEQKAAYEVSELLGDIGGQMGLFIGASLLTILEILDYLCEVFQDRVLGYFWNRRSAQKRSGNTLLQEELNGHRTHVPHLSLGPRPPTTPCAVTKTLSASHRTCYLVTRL

[2] = target: T1, rat ASIC3 (rASIC3); assay: whole-cell patch clamp, HEK293, pH5.5-evoked sustained current at […] s; format: cell-based; conditions: peptide in pH 7.4 resting solution, pH 5.5 pulse, -50 mV

EC50 [1] [µM]	Mean fold increase (I/Ictrl) [2] [fold]	Substance
4.73 ± 0.8		FRCCRF-NH2 (cysteine pairing not given here)
4.41 ± 0.95		FRCRCF-NH2 (cysteine pairing not given here)
	24.22	FRC̄C̄RFamide
	34.08	FRC̄R̄C̄Famide
